Measured values as given in patent US12338255B2, “Bicyclic substituted sulfonylurea compounds as inhibitors of interleukin-1 activity” (Viva Star Biosciences (Suzhou) Co., Ltd., priority 2022, dated 2025).
pIC50: −log10 of the molar value.

biological target: T1, NLRP3 (Homo sapiens, UniProt Q96P20); experiment: THP-1 LPS/nigericin IL1β release (pyroptosis assay), HTRF; assay type: cell-based; settings: NLRP3 inhibitory activity; THP-1 cells, 1.0 ug/mL LPS, compound 3 hrs, nigericin 5 uM 1 hr, IL1β in supernatant
T1 construct: Seed THP-1 cells (5.56*10^5 cells/mL) containing 1.0 ug/mL LPS; endogenous in cells; host or cells: THP-1 cells
T1 sequence (Q96P20 whole entry): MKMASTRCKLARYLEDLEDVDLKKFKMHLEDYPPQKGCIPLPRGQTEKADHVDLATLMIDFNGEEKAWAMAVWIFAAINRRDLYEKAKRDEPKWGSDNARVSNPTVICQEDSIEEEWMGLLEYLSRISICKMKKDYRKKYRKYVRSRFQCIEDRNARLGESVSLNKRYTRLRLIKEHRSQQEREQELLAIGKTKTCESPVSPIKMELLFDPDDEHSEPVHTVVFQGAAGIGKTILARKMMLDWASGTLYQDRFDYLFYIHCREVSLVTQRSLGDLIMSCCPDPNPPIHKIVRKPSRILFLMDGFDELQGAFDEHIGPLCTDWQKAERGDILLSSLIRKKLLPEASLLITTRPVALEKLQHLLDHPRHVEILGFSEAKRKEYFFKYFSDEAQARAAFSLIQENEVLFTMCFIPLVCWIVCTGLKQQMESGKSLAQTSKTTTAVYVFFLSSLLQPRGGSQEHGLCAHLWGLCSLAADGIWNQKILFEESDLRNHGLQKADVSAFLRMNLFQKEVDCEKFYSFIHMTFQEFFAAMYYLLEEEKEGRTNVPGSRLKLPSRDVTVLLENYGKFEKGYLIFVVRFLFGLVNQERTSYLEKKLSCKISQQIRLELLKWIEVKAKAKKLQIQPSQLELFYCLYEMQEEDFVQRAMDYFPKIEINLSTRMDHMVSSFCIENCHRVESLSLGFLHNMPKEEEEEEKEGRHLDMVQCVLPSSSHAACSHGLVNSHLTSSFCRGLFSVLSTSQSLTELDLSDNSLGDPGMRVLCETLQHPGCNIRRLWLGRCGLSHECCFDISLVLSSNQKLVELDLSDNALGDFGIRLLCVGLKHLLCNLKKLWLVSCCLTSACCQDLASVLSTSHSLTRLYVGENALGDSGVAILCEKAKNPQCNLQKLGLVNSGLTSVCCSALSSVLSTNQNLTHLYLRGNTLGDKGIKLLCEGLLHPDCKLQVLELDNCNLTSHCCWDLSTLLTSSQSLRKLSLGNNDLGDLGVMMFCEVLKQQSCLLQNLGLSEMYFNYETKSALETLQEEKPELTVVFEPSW
Method: The following method was used for compound screening. • 1. Seed THP-1 cells (5.56*10^5 cells/mL) containing 1.0 ug/mL LPS (SIGMA, L6529) in 45 uL RPMI 1640 medium (without FBS) into 384-well plate (Thermo Scientific, 164688). • 2. Add 5 uL compound (10 doses starting from 5 uM, 1:3 dilution) or vehicle (0.05% DMSO in medium) to the appropriate wells. • 3. Centrifuge the plates at 1000 rpm for 2 mins and incubate for 3 hrs at 37° C., 5% CO2. • 4. Add 5 uL nigericin (MEC, HY-100381) (final conc. 5 uM) to sample wells and positive control wells; add 5 uL RPMI 1640 medium to negative control wells. • 5. Centrifuge plates at 1000 rpm for 2 mins and incubate for 1 hr at 37° C., 5% CO2. • 6. At the end of the incubation period, centrifuge plates at 1000 rpm for 6 mins and transfer 8 uL supernatant into 384-well assay plates (PerkinElmer, 6008280). • 7. Add 8 ul RPMI 1640 medium into each well and spin down for 10 secs. • 8. Prepare the standard solutions and pre-mixed IL1β antibodie solution of Human IL1β kits (PerkinElmer, 62HIL1BPEH) according to the instruction. • 9. Add 16 uL standard solutions into clear wells of 384-well assay plates. • 10. Add 4 uL pre-mixed IL1β antibodie solution to all wells including sample wells, positive control wells, negative control wells and standard solutions wells. • 11. Seal the plates, spin down for 10 secs, incubation for overnight at RT and read on an HTRF® compatible reader (BMG LABTECH, PHERAstar FS). • 12. The concentrations of IL1β for treated wells are calculated by the standard curve. • 13. The IC50 data is fitted to a non-liner regression equation (log inhibitor vs. response—Variable slope four parameters)).

pIC50	SMILES
≥ 7.00	CO[C@@H]1COc2c(S(=O)(=O)NC(=O)Nc3c4c(cc(C)c3-c3ccn5nccc5c3)CCC4)cnn2C1 [Example 27, (S)-6-methoxy-N-((6-methyl-5-(pyrazolo[1,5-a]pyridin-5-yl)-2,3-dihydro-1H-inden-4-yl)carbamoyl)-6,7-dihydro-5H-pyrazolo[5,1-b][1,3]oxazine-3-sulfonamide]
6.30 to 7.00	O=C(Nc1c(-c2ccc3ncnn3c2)ccc2c1CCC2)NS(=O)(=O)c1cc2n(n1)CCO[C@H]2C1CC1 (single isomer, unassigned) [Example 8]
6.30 to 7.00	O=C(Nc1c(-c2ccc3ccnn3c2)ccc2c1CCC2)NS(=O)(=O)c1cc2n(n1)CCO[C@H]2C1CC1 (single isomer, unassigned) [Example 6]
6.30 to 7.00	O=C(Nc1c(-c2ccc3ccnn3c2)ccc2c1CCC2)NS(=O)(=O)c1cc2n(n1)CCO[C@@H]2C1CC1 (single isomer, unassigned) [Example 2]
6.30 to 7.00	Cc1cc2c(c(NC(=O)NS(=O)(=O)c3cnn4c3COCC4)c1-c1ccn3nccc3c1)CCC2 [Example 26, N-((6-methyl-5-(pyrazolo[1,5-a]pyridin-5-yl)-2,3-dihydro-1H-inden-4-yl)carbamoyl)-6,7-dihydro-4H-pyrazolo[5,1-c][1,4]oxazine-3-sulfonamide]
≥ 7.00	Cc1cc2c(c(NC(=O)NS(=O)(=O)c3cnc4c(c3)N(C3CC3)CCO4)c1-c1ccn3nccc3c1)CCC2 [Example 25, 1-cyclopropyl-N-((6-methyl-5-(pyrazolo[1,5-a]pyridin-5-yl)-2,3-dihydro-1H-inden-4-yl)carbamoyl)-2,3-dihydro-1H-pyrido[2,3-b][1,4]oxazine-7-sulfonamide]
6.30 to 7.00	Cc1cc2c(c(NC(=O)NS(=O)(=O)c3cnn4c3COCC4)c1-c1ccnc3[nH]ccc13)CCC2 [Example 21, N-((6-methyl-5-(1H-pyrrolo[2,3-b]pyridin-4-yl)-2,3-dihydro-1H-inden-4-yl)carbamoyl)-6,7-dihydro-4H-pyrazolo[5,1-c][1,4]oxazine-3-sulfonamide]
≥ 7.00	Cc1cc2c(c(NC(=O)NS(=O)(=O)c3cn4c(n3)C(C3CC3)OCC4)c1-c1ccn3nccc3c1)CCC2 (stereo not drawn) [Example 18, 8-cyclopropyl-N-((6-methyl-5-(pyrazolo[1,5-a]pyridin-5-yl)-2,3-dihydro-1H-inden-4-yl)carbamoyl)-5,6-dihydro-8H-imidazo[2,1-c][1,4]oxazine-2-sulfonamide]
6.30 to 7.00	O=C(Nc1c(-c2ccn3ncnc3c2)ccc2c1CCC2)NS(=O)(=O)c1cc2n(n1)CCO[C@@H]2C1CC1 (single isomer, unassigned) [Example 13]
6.30 to 7.00	O=C(Nc1c(-c2ccc3cncn3c2)ccc2c1CCC2)NS(=O)(=O)c1cc2n(n1)CCO[C@@H]2C1CC1 (single isomer, unassigned) [Example 12]
6.30 to 7.00	Cc1cc2c(c(NC(=O)NS(=O)(=O)c3cc4n(n3)CCOC4(C)C)c1-c1ccnc3[nH]ccc13)CCC2 [Example 20, 4,4-dimethyl-N-((6-methyl-5-(1H-pyrrolo[2,3-b]pyridin-4-yl)-2,3-dihydro-1H-inden-4-yl)carbamoyl)-6,7-dihydro-4H-pyrazolo[5,1-c][1,4]oxazine-2-sulfonamide]
6.00 to 6.30	Cc1cc2c(c(NC(=O)NS(=O)(=O)c3cn4c(n3)C(C3CC3)OCC4)c1-c1ccnc3[nH]ccc13)CCC2 (stereo not drawn) [Example 19, 8-cyclopropyl-N-((6-methyl-5-(1H-pyrrolo[2,3-b]pyridin-4-yl)-2,3-dihydro-1H-inden-4-yl)carbamoyl)-5,6-dihydro-8H-imidazo[2,1-c][1,4]oxazine-2-sulfonamide]
6.30 to 7.00	O=C(Nc1c(-c2ccn3nncc3c2)ccc2c1CCC2)NS(=O)(=O)c1cc2n(n1)CCO[C@H]2C1CC1 (single isomer, unassigned) [Example 7]
6.30 to 7.00	O=C(Nc1c(-c2ccn3nccc3c2)ccc2c1CCC2)NS(=O)(=O)c1cc2n(n1)C(C1CC1)COC2 (stereo not drawn) [Example 16, 7-cyclopropyl-N-((5-(pyrazolo[1,5-a]pyridin-5-yl)-2,3-dihydro-1H-inden-4-yl)carbamoyl)-6,7-dihydro-4H-pyrazolo[5,1-c][1,4]oxazine-2-sulfonamide]
≥ 7.00	CO[C@@H]1COc2c(S(=O)(=O)NC(=O)Nc3c4c(cc(C)c3-c3ccc5ccnn5c3)CCC4)cnn2C1 [Example 29, (S)-6-methoxy-N-((6-methyl-5-(pyrazolo[1,5-a]pyridin-6-yl)-2,3-dihydro-1H-inden-4-yl)carbamoyl)-6,7-dihydro-5H-pyrazolo[5,1-b][1,3]oxazine-3-sulfonamide]
≥ 7.00	CO[C@@H]1COc2c(S(=O)(=O)NC(=O)Nc3c4c(cc(C)c3-c3ccn5ccnc5c3)CCC4)cnn2C1 [Example 28, (S)-N-((5-(imidazo[1,2-a]pyridin-7-yl)-6-methyl-2,3-dihydro-1H-inden-4-yl)carbamoyl)-6-methoxy-6,7-dihydro-5H-pyrazolo[5,1-b][1,3]oxazine-3-sulfonamide]
6.30 to 7.00	O=C(Nc1c(-c2ccn3ccnc3c2)ccc2c1CCC2)NS(=O)(=O)c1cc2n(n1)CCO[C@@H]2C1CC1 (single isomer, unassigned) [Example 11]
≥ 7.00	O=C(Nc1c(-c2ccn3nccc3c2)ccc2c1CCC2)NS(=O)(=O)c1cnc2c(c1)N(C1CC1)CCO2 [Example 24, 1-cyclopropyl-N-((5-(pyrazolo[1,5-a]pyridin-5-yl)-2,3-dihydro-1H-inden-4-yl)carbamoyl)-2,3-dihydro-1H-pyrido[2,3-b][1,4]oxazine-7-sulfonamide]
≥ 7.00	Cc1cc2c(c(NC(=O)NS(=O)(=O)c3cc4n(n3)CCOC43CCC3)c1-c1ccn3nccc3c1)CCC2 [Example 17, N-((6-methyl-5-(pyrazolo[1,5-a]pyridin-5-yl)-2,3-dihydro-1H-inden-4-yl)carbamoyl)-6′,7′-dihydrospiro[cyclobutane-1,4′-pyrazolo[5,1-c][1,4]oxazine]-2′-sulfonamide]
≥ 7.00	Cc1cc2c(c(NC(=O)NS(=O)(=O)c3cc4n(n3)CCO[C@@H]4C3CC3)c1-c1ccn3nccc3c1)CCC2 (single isomer, unassigned) [Example 9]
≥ 7.00	O=C(Nc1c(-c2ccn3nccc3c2)ccc2c1CCC2)NS(=O)(=O)c1cc2n(n1)CCO[C@H]2C1CC1 (single isomer, unassigned) [Example 5]
≥ 7.00	Cc1cc2c(c(NC(=O)NS(=O)(=O)c3cc4n(n3)CCOC4)c1-c1ccn3nccc3c1)CCC2 [Example 23, N-((6-methyl-5-(pyrazolo[1,5-a]pyridin-5-yl)-2,3-dihydro-1H-inden-4-yl)carbamoyl)-6,7-dihydro-4H-pyrazolo[5,1-c][1,4]oxazine-2-sulfonamide]
≥ 7.00	Cc1cc2c(c(NC(=O)NS(=O)(=O)c3cc4n(n3)CCOC4(C)C)c1-c1ccn3nccc3c1)CCC2 [Example 22, 4,4-dimethyl-N-((6-methyl-5-(pyrazolo[1,5-a]pyridin-5-yl)-2,3-dihydro-1H-inden-4-yl)carbamoyl)-6,7-dihydro-4H-pyrazolo[5,1-c][1,4]oxazine-2-sulfonamide]
6.30 to 7.00	O=C(Nc1c(-c2ccc3ncnn3c2)ccc2c1CCC2)NS(=O)(=O)c1cc2n(n1)CCO[C@@H]2C1CC1 (single isomer, unassigned) [Example 4]
≥ 7.00	Cc1cc2c(c(NC(=O)NS(=O)(=O)c3cc4n(n3)CCO[C@@H]4C3CC3)c1-c1ccn3ccnc3c1)CCC2 (single isomer, unassigned) [Example 15]
≥ 7.00	O=C(Nc1c(-c2ccn3nncc3c2)ccc2c1CCC2)NS(=O)(=O)c1cc2n(n1)CCO[C@@H]2C1CC1 (single isomer, unassigned) [Example 3]
6.30 to 7.00	O=C(Nc1c(-c2ccn3cncc3c2)ccc2c1CCC2)NS(=O)(=O)c1cc2n(n1)CCO[C@@H]2C1CC1 (single isomer, unassigned) [Example 10]
≥ 7.00	CO[C@@H]1COc2c(S(=O)(=O)NC(=O)Nc3c4c(cc(C)c3-c3ccc5nccn5c3)CCC4)cnn2C1 [Example 30, (S)-N-((5-(imidazo[1,2-a]pyridin-6-yl)-6-methyl-2,3-dihydro-1H-inden-4-yl)carbamoyl)-6-methoxy-6,7-dihydro-5H-pyrazolo[5,1-b][1,3]oxazine-3-sulfonamide]
6.00 to 6.30	O=C(Nc1c(-c2ccc3nncn3c2)ccc2c1CCC2)NS(=O)(=O)c1cc2n(n1)CCO[C@@H]2C1CC1 (single isomer, unassigned) [Example 14]
≥ 7.00	O=C(Nc1c(-c2ccn3nccc3c2)ccc2c1CCC2)NS(=O)(=O)c1cc2n(n1)CCO[C@@H]2C1CC1 (single isomer, unassigned) [Example 1]
